Here are results for 4 compounds from publication PMC4077696 (PLoS Biology, 2014).

In general, IC50 refers to the concentration that inhibits the measured activity by half. Higher therefore signals a need for much substance.

Counter-ions that a name gives are not always drawn.

In one data set the target is PfPMV (Plasmodium falciparum, UniProt Q8I6Z5). Put plainly: PEXEL cleavage assay with immunopurified PfPMVHA and fluorogenic KAHRP PEXEL peptide. Type of data set: biochemical. The settings on record: IC50 PfPMV, PfPMVHA. How it is done: (§1) To investigate PvPMVHA activity, we affinity purified it, as well as the PfPMVHA control, using anti-HA agarose, as previously described,[18]. […] The proteins were incubated with a fluorogenic peptide of nine amino acids that contained the PEXEL sequence from knob-associated histidine-rich protein (KAHRP), and efficient processing was observed by both enzymes (Figure 1E). Cleavage of KAHRP by PfPMVHA was previously shown to occur after Leu (RTL↓) by mass spectrometry, and this position was also confirmed for PvPMVHA (Figure S2B–E). […] In contrast, no processing was observed when the PEXEL Arg and Leu residues were mutated to Ala (ATAAQ), consistent with the substrate specificity of PfPMV (Figure 1E). To verify that processing was due to HA-tagged PMV rather than other co-precipitated proteases, we expressed in P. falciparum a mutant of PvPMVHA or PfPMVHA [13], where one or both catalytic Asp residues were mutated to Ala (see Figure 1A,B). Following affinity purification, the mutant enzymes were incubated with KAHRP PEXEL peptides, but no processing was observed (Figure 1E; blue, white), confirming that the PEXEL-dependent cleavage activity observed for each protease was attributable only to HA-tagged PMV.
(§2) Each compound was incubated with PfPMVHA in the presence of KAHRP PEXEL peptides.
(§3) PMV-agarose was prepared by adding α-HA-agarose (Sapphire Bioscience) to parasite lysates, prepared by sonication in 1% Triton X-100/PBS, for 1 h before extensive washing in same,[13]. PEXEL cleavage assays (20 µl total volume) consisted of 0.2 µl PMV-agarose in digest buffer (25 mM Tris, 25 mM MES, pH 6.4) with 1.5 µM FRET peptide substrate (DABCYL-[…]-E-EDANS, DABCYL-[…]-E-EDANS, LifeTein; DABCYL-[…]-E-EDANS, DABCYL-[…]-E-EDANS; Mimotopes) ± inhibitor. Samples were excited at 340 nm and fluorescence emission measured at 492 nm using an Envision fluorescence plate reader (Perkin-Elmer) heated to 37°C for 150 min. Samples were shaken between measurements. For determination of the peptide cleavage position by PvPMVHA, the fluorogenic peptide (DABCYL-[…]-E-EDANS), representing the wild-type KAHRP PEXEL sequence, was incubated with and without PvPMVHA at 37°C for 48 h. Products of the incubation were detected by a molecular formula algorithm using an Agilent 6200 TOF/6500 series mass spectrometer.

The next data set deals with PvPMV (Plasmodium vivax, UniProt A5K302). In words: PEXEL cleavage assay with immunopurified PvPMVHA and fluorogenic KAHRP PEXEL peptide. The data set is classed as biochemical.
Another data set has as its system HEpG2 cells. Put plainly: Toxicity against human HEpG2 cells. The data set is classed as cell-based. The settings on record: toxicity against human cell line.
Data set [1] concerns Human Foreskin Fibroblasts (HFF). In words: Toxicity against Human Foreskin Fibroblasts. The data set is classed as cell-based. The following applies: Fibroblast.
Data set [2] addresses PMV in P. falciparum–infected erythrocytes (Plasmodium falciparum, UniProt Q8I6Z5). Put plainly: PEXEL processing of GFP reporters in parasites by immunoblot. The data set is classed as cell-based. The settings on record: 5 h treatment, immunoblot. How it is done:
To assess whether 916 could inhibit PMV in P. falciparum–infected erythrocytes, parasites expressing the PEXEL protein P. falciparum erythrocyte membrane protein 3 (PfEMP3) fused to green fluorescent protein (GFP) were treated with increasing concentrations of inhibitor, and PEXEL processing was evaluated by immunoblot. […] A GFP-only band, representing degraded chimera in the food vacuole, was also observed at ∼26 kDa (Figure 3A).
(§4) Trophozoites (30–34 h) expressing PfEMP3-GFP, KAHRP-GFP, or SERA5s-GFP were magnet-purified (Miltenyi Biotech), incubated with inhibitors in 400 µl total volume at 37°C for 1–5 h, treated with 0.09% saponin containing inhibitor, and washed pellets were solubilized in Laemmli's buffer, boiled for 3 min, and frozen at −20°C. Proteins were separated by SDS-PAGE, transferred to nitrocellulose and blocked in 10% skim milk/PBS-T, and probed with rat α-HA (Roche 3F10; 1∶1,000), mouse α-GFP (Roche; 1∶1,000), rabbit α-Aldolase (1∶1,000), rabbit α-HSP70 (1∶4,000), rabbit α-PfPMV (1∶1,000), or rabbit α-Hyp8 (1∶500) primary antibodies followed by horseradish peroxidase-conjugated secondary antibodies (Silenius) and detected by enhanced chemiluminescence (Amersham).
For orientation: A western blot detects proteins with antibodies after separation by electrophoresis.

The subject of another data set is signal peptidase. Put plainly: Signal peptide cleavage of SERA5s-GFP in parasites by immunoblot. Type of data set: cell-based, Plasmodium falciparum. As for the experimental part:
This protein contains a signal peptide but lacks a PEXEL and is efficiently secreted to the parasitophorous vacuole (Figure S3B).
as §4

The subject of data set [3] is P. falciparum protein translation. Put plainly: Global protein synthesis by radiolabeling parasite proteins after drug treatment. Type of data set: cell-based, Plasmodium falciparum. The settings on record: for Global protein synthesis after 23 h treatment of rings: 15 µM or 50>15 µM, BFA 5 µg/ml; for Global protein synthesis after 5 h treatment of trophozoites: 15 or 50 µM, BFA 10 µg/ml, 15 min labeling. As for the experimental part:
To gain further insight into the effects of 916, 024, and 025 on parasites, we assessed global protein synthesis following drug treatment by radiolabeling parasite proteins. Treatment of trophozoites with inhibitor for 5 h prior to radiolabeling had no detectable effect on translation, even at 50 µM concentrations (Figure S4A), indicating the compounds are not direct inhibitors of the translation machinery. We next assessed protein synthesis following 23 h of drug treatment of ring stage parasites (aged 1–3 h old at the initiation of treatment). […] Indeed, Giemsa smears following treatment identified a small proportion of pyknotic parasites in the population (results not shown). […] It is possible that PMV inhibition by 916 treatment has a similar but weaker effect to BFA, in that it causes the accumulation of uncleaved PEXEL precursors in the ER, perturbing ER transport, and that this negatively affects translation by an ER stress response. An alternative possibility is that translation was decreased slightly as a result of parasites dying from 916-mediated impairment of erythrocyte remodeling. Either way, the profile for 916 was different to that seen for 024 and 025, even at 50 µM, indicating the latter analogs likely kill parasites via a different mechanism to 916.
Whole parasite proteins were radiolabeled by culturing magnet-purified trophozoites (wild-type 3D7 or expressing PfEMP3-GFP) in Met/Cys-free medium for 30 min at 37°C before addition of 800 µCi/ml ^35S-Met/Cys (Perkin/Elmer) to the medium for the indicated times. Pellets were snap frozen in ethanol/dry ice bath and stored at −80°C. For radiolabeling in the presence of PMV inhibitor, parasites were treated with 20 µM WEHI-916 for 5 h before labeling commenced. For pulse-chases, proteins were radiolabeled in the presence or absence of inhibitor, as above, before further culture in radiolabel-free, inhibitor-free complete medium for the indicated times at 37°C before snap freezing. Frozen samples were either solubilized in Laemmli's buffer (Figure S4) or solubilized in 1% Triton X-100/PBS with protease inhibitor cocktail (Roche) and PfEMP3-GFP species immunopurified with α-GFP agarose (MBL) at 4°C for 2 h (Figures 3 and S3), and proteins were resolved by SDS-PAGE, visualized by autoradiography (7-d exposures), and quantified using a GS-800 Calibrated Densitometer (Bio-Rad).

The test system of data set [4] is CC(C)C[C@H](NC(=O)[C@@H](NC(=O)[C@H](CCCNC(=N)N)NC(=O)[C@H](CCCCN)NC(=O)[C@H](CC(N)=O)NC(=O)[C@H](CCCNC(=N)N)NC(=O)c1ccc(N=Nc2ccc(N(C)C)cc2)cc1)[C@@H](C)O)C(=O)N[C@@H](C)C(=O)N[C@@H](CCC(N)=O)C(=O)N[C@@H](CCCCN)C(=O)N[C@@H](CCC(N)=O)C(=O)N[C@@H](CCC(=O)NCCNc1cccc2c(S(=O)(=O)O)cccc12)C(N)=O. In words: PEXEL cleavage assay with immunopurified PvPMVHA and fluorogenic KAHRP PEXEL peptide. The data set is classed as biochemical, Plasmodium vivax. The following applies: other: Michaelis–Menten, 2 h; pH 6.4; 37.0 °C.

Data set [5] has the same test system. In words: PEXEL cleavage assay with immunopurified PfPMVHA and fluorogenic KAHRP PEXEL peptide. The data set is classed as biochemical, Plasmodium falciparum. The following applies: other: Michaelis–Menten, 2 h; pH 6.4; 37.0 °C. How it is done:
as §1, §2, §3

Sequence of PvPMV (A5K302 35-536): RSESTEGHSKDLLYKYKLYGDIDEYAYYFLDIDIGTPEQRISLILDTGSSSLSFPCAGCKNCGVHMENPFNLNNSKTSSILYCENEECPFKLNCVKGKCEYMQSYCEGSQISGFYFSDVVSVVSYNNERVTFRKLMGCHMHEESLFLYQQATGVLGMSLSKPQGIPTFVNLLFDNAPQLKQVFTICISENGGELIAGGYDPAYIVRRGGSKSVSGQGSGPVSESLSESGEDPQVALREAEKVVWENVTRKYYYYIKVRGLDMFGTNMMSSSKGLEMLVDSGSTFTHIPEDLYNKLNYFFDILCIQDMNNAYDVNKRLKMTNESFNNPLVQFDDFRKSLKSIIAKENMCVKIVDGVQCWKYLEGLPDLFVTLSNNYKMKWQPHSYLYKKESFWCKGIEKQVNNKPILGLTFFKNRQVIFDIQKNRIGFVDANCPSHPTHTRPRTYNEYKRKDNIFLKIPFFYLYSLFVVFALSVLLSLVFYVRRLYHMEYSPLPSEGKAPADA
Sequence of PMV in P. falciparum–infected erythrocytes (Q8I6Z5 whole entry, the tested form may be a part): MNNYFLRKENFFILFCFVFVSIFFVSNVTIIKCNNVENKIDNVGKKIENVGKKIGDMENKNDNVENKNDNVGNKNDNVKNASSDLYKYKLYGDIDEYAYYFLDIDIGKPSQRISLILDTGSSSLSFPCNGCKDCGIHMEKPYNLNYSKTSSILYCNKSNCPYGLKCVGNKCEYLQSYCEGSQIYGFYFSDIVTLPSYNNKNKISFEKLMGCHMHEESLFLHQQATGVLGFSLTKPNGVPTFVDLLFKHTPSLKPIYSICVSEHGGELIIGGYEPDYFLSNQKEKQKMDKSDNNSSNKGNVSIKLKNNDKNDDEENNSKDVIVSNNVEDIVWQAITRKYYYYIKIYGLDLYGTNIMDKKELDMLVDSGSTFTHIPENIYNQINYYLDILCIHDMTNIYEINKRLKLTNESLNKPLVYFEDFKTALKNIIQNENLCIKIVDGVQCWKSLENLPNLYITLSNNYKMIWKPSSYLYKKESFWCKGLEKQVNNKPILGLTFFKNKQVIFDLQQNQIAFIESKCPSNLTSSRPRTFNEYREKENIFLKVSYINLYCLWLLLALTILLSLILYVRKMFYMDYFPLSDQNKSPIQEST
Sequence of PfPMV (Q8I6Z5 34-590): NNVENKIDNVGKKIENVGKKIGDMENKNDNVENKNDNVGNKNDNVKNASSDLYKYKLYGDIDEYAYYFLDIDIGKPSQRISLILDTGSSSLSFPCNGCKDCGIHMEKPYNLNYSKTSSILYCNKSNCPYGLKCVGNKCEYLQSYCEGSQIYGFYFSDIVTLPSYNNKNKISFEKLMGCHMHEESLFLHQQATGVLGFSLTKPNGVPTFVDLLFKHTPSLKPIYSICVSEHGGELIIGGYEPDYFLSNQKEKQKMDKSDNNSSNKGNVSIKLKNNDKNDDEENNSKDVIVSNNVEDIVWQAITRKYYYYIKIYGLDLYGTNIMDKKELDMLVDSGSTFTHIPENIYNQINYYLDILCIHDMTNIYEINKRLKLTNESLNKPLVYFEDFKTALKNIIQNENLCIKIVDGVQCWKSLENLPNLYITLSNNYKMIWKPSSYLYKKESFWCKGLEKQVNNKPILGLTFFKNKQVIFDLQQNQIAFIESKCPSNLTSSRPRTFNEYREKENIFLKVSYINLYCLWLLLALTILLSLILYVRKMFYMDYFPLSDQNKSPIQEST

For the compound `CC(C)C[C@H](NC(=O)[C@@H](NC(=O)[C@H](CCCCN)NS(=O)(=O)Cc1ccccc1)C(C)C)[C@@H](O)CC(=O)NCCc1ccccc1` [compound 024, PhCH2SO2-Lys(NH2)-Val-Sta-NH(CH2)2Ph .TFA], the concentration for half-maximal inhibition (IC50) (at PfPMV; against PvPMV; in the data set with HEpG2 cells; in [1]) was above 100 µM in each case. In addition, the “Activity against PvPMVHA, in words” value on PvPMV was “weak activity”. For the same compound, the “PEXEL processing of KAHRP-GFP in parasites, in words” value in [2] (20 and 50 µM) was “no effect”. The “PEXEL processing of PfEMP3-GFP in parasites, in words” value in [2] (up to 50 µM) is recorded as “no effect”. For the same compound, the “Signal peptide cleavage of SERA5s-GFP, in words” value in the data set with signal peptidase (20 µM for 5 h) was “no defect”. In addition, the “Effect on PMV or signal peptidase activity in parasites, in words” value with signal peptidase (concentrations up to 50 µM) was “no affect”. Moreover, the “Global protein synthesis after 23 h treatment of rings” value (from here on “Global protein synthesis … of rings”) in data set [3] is on record as “no defect in global protein synthesis”. Also, the “Global protein synthesis after 5 h treatment of trophozoites” value in data set [3] is “no defect in global protein synthesis”.

`C[C@H]1CCC/C=C/[C@@H]2C[C@H](O)C[C@H]2[C@H](O)/C=C/C(=O)O1` [Brefeldin A, reference compound]: in data set [3], the “Global protein synthesis … of rings” value was “severely impaired translation” and the “Global protein synthesis after 5 h treatment of trophozoites” value is reported as “no defect in global protein synthesis”. Also, the “Global protein synthesis … of rings” value in data set [3] (listed as BFA) is reported as “severely reduced translation”.

Take PvPMV (Plasmodium vivax Sal-1): the Km in [4] was 9.7 (±3.0) µM.

Regarding PfPMV (Plasmodium falciparum 3D7), the Km in data set [5] was 11.7 (±1.8) µM.
